# In patent US20250387481A1, “PRE-TREATED T CELLS FOR USE AS A MEDICAMENT” (STICHTING HET NEDERLANDS KANKER INSTITUUT-ANTONI VAN …, priority 2022, published 2025):
# How the values were obtained:
# MMTV-PyMT organoids = assay: MTT measurement of MMTV-PyMT organoid survival upon increasing doses of docetaxel; type: cell-based; settings: Mus musculus, docetaxel for 72 h
# Method: Breast cancer organoids were derived from K14-Cre; Brca1fl/fl; p53fl/fl mouse mammary tumors (KB1P (Kester, L., et al. Clin Cancer Res, 2022.)) and from MMTV-PyMT (Duarte, A. A., et al. Nat Methods, 2018. 15(2): p. 134-140) mouse mammary tumors. Both lines were cultured in 50 μl drops of Cultrex PathClear Reduced Growth Factor Basement Membrane Extract Type 2 (BME, Amsbio, 3533-005-02). KB1P organoids were cultured in Advanced Dulbecco's modified Eagle's medium (adDMEM/F12; Thermo Fisher Scientific. Cat. No. 12634-010) containing Hepes (10 mmol/L; Thermo Fisher Scientific, Cat. No. 15630-056), Penicillin/streptomycin (10,000 U/ml; Thermo Fisher Scientific, Cat. No. 15140-122), B27 (2% Thermo Fisher Scientific, Cat. No. 17504-044), N-acetylcysteine (1.25 mM; Sigma-Aldrich, Cat. No. A9165) and fibroblast growth factor (FGF, 12 ng/ml; Invitrogen, Cat. No. PHG0261). MMTV-PyMT organoids were cultured in DMEM/F12 GlutaMAX (Gibco, Cat. No 10565018) supplemented with 10 mmol/L Hepes (Gibco, Cat. No 15630106), Penicillin/streptomycin (10,000 U/ml; Thermo Fisher Scientific, Cat. No. 15140-122), B27 (2% Thermo Fisher Scientific, Cat. No. 17504-044) and fibroblast growth factor (FGF, 12 ng/ml; Invitrogen, Cat. No. PHG0261). […]
# Following co-culture, medium was removed, and cultures were washed in PBS to remove T cells. […] Plates were read with a 565 nm wavelength.
# tumor-reactive T cells = assay: Tumor recognition assay and viability of patient-derived tumor-reactive T cells; type: cell-based, human; settings: 10 nmol/L docetaxel
# Method: Tumor-reactive patient T cells were generated by co-culturing PBMCs and autologous tumor organoids as described previously (Dekkers, J. F., et al. Nat Protoc, 2021. 16(4): p. 1936-1965; Cattaneo, C. M., et al. Nat Protoc, 2020. 15(1): p. 15-39). In brief, following incubation with 200 ng/ml IFNγ for 24 hr, patient tumor organoids were dissociated into single cell suspensions using TripLE Express. Tumor organoid cells were mixed with patient PBMCs ([…]) and […] were seeded in each well of a U-bottom 96-well plate pre-coated with 5 μg/ml αCD28 antibody. Co-culture medium consisted of RPMI 1640 supplemented with 2 mmol/L Ultraglutamine I, penicillin/streptomycin, 10% human AB serum, 150 U/ml rh-IL-2 and 20 μg/ml αPD1 blocking antibody (Merus, The Netherlands). Medium, IL-2 and αPD1 were refreshed every 2-3 days. PBMCs were harvested and re-stimulated every 7 days by re-plating with fresh tumor organoid cells. After two weeks of co-culture, PBMCs were harvested and used for downstream analysis or cryopreserved for later use.
# Tumor-reactive PBMC were thawed in pre-warmed T cells medium and incubated for 15 minutes with 25 U/mL Benzonase. After washing, cells were re-suspended at 2−3×10^6 cells/ml in T cell medium and cultured overnight at 37° C. T cell medium consisted of RPMI 1640 supplemented with 2 mmol/L Ultraglutamine I, penicillin/streptomycin, 10% human AB serum and 150 U/ml rh-IL-2. The day after, PBMC were incubated with (or without) 10 nmol/L docetaxel for 48 h.
# For evaluation of tumor reactivity, […] were re-stimulated with autologous tumor organoids or autologous healthy organoids (isolated from Geltrex for 48 h and stimulated with 200 ng/ml IFNγ for 24 h, as described in (Dekkers, J. F., et al. Nat Protoc, 2021. 16(4): p. 1936-1965; Cattaneo, C. M., et al. Nat Protoc, 2020. 15(1): p. 15-39; Voorwerk, L., et al. Nat Med, 2019. 25(6): p. 920-928) at a 2:1 effector: target ratio and seeded in αCD28 coated plates in the presence of 20 μg/ml αPD1 and co-cultured for 24 hours. At the end of the 24 h, 50 μl of the assay supernatant were taken on the side and used for the quantification of the secreted IFNγ. To this purpose, the Human IFN-γ Flex Set (BD bioscience) was used in accordance with the manufacturer's instructions. For the evaluation of CD137 expression, at the end of the 24 h, cells were washed twice in FACS buffer and stained with the following antibodies: αCD3 PerCPCy5.5, αCD4 FITC, αCD8 BV421, αCD137 APC, and near IR viability dye for 30 minutes at 4° C. in the dark. […] Cells were then washed twice with FACS buffer and recorded with a Becton Dickinson Fortessa or LSRII flow cytometer.
structure (smiles),measurement,setting,value
CC(=O)O[C@@]12CO[C@@H]1C[C@H](O)[C@@]1(C)C(=O)[C@H](O)C3=C(C)[C@@H](OC(=O)[C@H](O)[C@@H](NC(=O)OC(C)(C)C)c4ccccc4)C[C@@](O)([C@@H](OC(=O)c4ccccc4)[C@H]21)C3(C)C [docetaxel],IC50,MMTV-PyMT organoids,130 nM
same,IFNγ secretion by T cells,tumor-reactive T cells,did not enhance IFNγ secretion
same,T cell viability,tumor-reactive T cells,did not significantly alter T cell viability
same,ability of T cells to recognize tumor organoids (CD137),tumor-reactive T cells,did not increase
same,"expression of CD137, CD107 or PD1",tumor-reactive T cells,did not increase
